The values that follow come from US11679104B2, “Compositions and methods of enhancing the homing and/or engraftment of hematopoietic cells in the central nervous system” (Duke University, priority 2017, dated 2023).

“Also recorded” adds a separate entry of the source.

For the test, the system named is microglia. As to the kind of experiment: BMT with UBC-GFP bone marrow followed by PLX5622 chow: beMφ engraftment into the brain. In kind it is in vivo, mice. Conditions: for GFP+ beMφ engraftment in the brain: 1 week recovery, 6 weeks standard chow. An excerpt: Mice were γ-irradiated with a lethal dose of 1000 rad. Four hours post irradiation, mice were intravenously injected with 5×10^6 bone marrow cells. Mice were given water supplemented with trimethoprim-sulfamethoxazole for two weeks and monitored daily for the first 4 days. A lead shield was placed over the head during irradiation in some experiments, as indicated.
To determine transcriptional and morphological changes of microglia and beMφ to an insult, mice were given a peripheral LPS challenge. Mice were first irradiated and given BMT with UBC-GFP bone marrow. To target microglia, head shielding was applied during irradiation in some mice. After 1 week of recovery, mice were treated with PLX 5622 for 2 weeks to deplete the brain macrophage niche then placed on standard chow for 6 weeks. Mice were injected with 50 μg LPS or saline (i.p.). 6 hours later, brains were removed and macrophages sorted by MACS on CD11B beads as described above.
We utilized the Csf1r inhibitor PLX5622 in chow, to eliminate irradiation-damaged, yet still viable, microglia. Mice were given BMT with UBC-GFP bone marrow with or without head covering during irradiation, followed by 1 week of recovery, 2 weeks of chow containing PLX5622, and finally 6 weeks of recovery on standard chow.
Our third model (see Example 2) was designed to take advantage of the synergistic effect on engraftment we had observed with the combination of CNS irradiation and Csf1r deletion in microglia. Instead of Csf1r deletion using our genetic model, we utilized the Csf1r inhibitor PLX5622 in chow, to eliminate the irradiation-damaged, yet still viable, microglia. Mice were given BMT with UBC-GFP bone marrow with or without head covering during irradiation, followed by 1 week of recovery, 2 weeks of chow containing PLX5622, and finally 6 weeks of recovery on standard chow. […] Due to the robust level of engraftment in this model, we sorted GFP+ beMφ from whole body irradiated mice and GFP microglia from head covered mice for RNA-seq. Mice were injected i.p. with saline or LPS 6 hours prior to cell collection. Microglia and beMφ were FACS sorted from mice with or without head-covering, respectively, and then RNA-seq followed by differential expression analysis was performed (n=3 microglia samples, pooled from 3 total mice for each sample, and n=3 beMφ samples, pooled from 3 total mice for each sample; performed once).

Turning to `COc1ncc(F)cc1CNc1ccc(Cc2c[nH]c3ncc(C)cc23)c(F)n1` [PLX5622], the “GFP+ beMφ engraftment in the brain” value (BMT with head covering during irradiation, 2 weeks PLX5622 chow) is “minimal GFP+ beMφ engraftment” and the “GFP+ beMφ engraftment in the brain” value (BMT with whole body irradiation, 2 weeks PLX5622 chow) is “robust engraftment of GFP+ beMφ; also recorded: robust engraftment of GFP+ beMϕ”. Further, the “repopulation of the CNS with endogenous microglia” value (BMT with head covering during irradiation, 2 weeks PLX5622 chow, then 6 weeks standard chow) is listed as “effectively repopulated the CNS with endogenous microglia”. Moreover, the “repopulation of microglia by beMφ” value (system of BMT and PLX5622 treatment for beMφ engraftment) was “substantial repopulation of microglia by beMϕ”. In addition, the “potentiation of engraftment of hematopoietic-derived macrophages into the brains of mice” value (used as part of a protocol that clears the microglial niche) is given as “can potentiate engraftment”.
